Assay results as given in publication PMC4871512, “Drug-Based Lead Discovery: The Novel Ablative Antiretroviral Profile of Deferiprone in HIV-1-Infected Cells and in HIV-Infected Treatment-Naive Subjects of a Double-Blind, Placebo-Controlled, Randomized Exploratory Trial” (PLoS ONE, 2016).

Test system: HIV-1
Assay: Proof-of-concept trial: HIV-1 RNA in plasma of treatment-naive HIV-infected subjects (ICR, ICD)
Format: in vivo, human
Conditions: for period for which the decrease of HIV-1 RNA persists off-drug: 7-day / 17-dose course, responsive cohort; for ICR relative to pre-treatment level: regimen-compliant responsive sub-group (Subjects 1, 5, 20, 24)
Method: Cell-free supernatants were used for p24 and HIV-1 RNA measurements. p24 core antigen in the supernatant was quantified by ELISA (Retrotek HIV-1 p24®; ZeptoMetrix Corp.; Buffalo, NY). HIV-1 RNA copy number in the supernatant of PBMC cultures and in plasma of trial subjects enrolled in the exploratory deferiprone trial was determined with a PCR-based and FDA-approved assay (Amplicor HIV-1 Monitor®; Roche Diagnostics Corp.; Indianapolis, IN). For clinical samples, the assay was used per the Standard Specimen Processing Procedure (sensitivity limit 400 copies/ml); for cell culture samples, the assay was used in both the Standard Specimen Processing and the UltraSensitive Specimen Processing Procedure (sensitivity limit 50 copies/ml). If not specified further, the term “log10” designates the amount of HIV-1 RNA in the dimensions [log10 / ml]. The Roche Amplicor HIV-1 DNA Test (Roche Diagnostics Corp.; Indianapolis, IN) was used for detection of HIV-1 DNA with the primer pair SK431/462, which amplifies a highly conserved region of the gag genome of HIV-1 subtype B DNA. […] Apoptotic DNA fragmentation was quantified flow-cytometrically, using a terminal deoxynucleotide transferase dUTP nick end-labeling (TUNEL) assay (APO-BRDU™; Phoenix Flow Systems; San Diego, CA). All experiments and assays were performed at least in duplicate.
Eligible for enrollment were volunteers of both genders, between 18 and 60 years old, healthy or HIV-infected with CD4 count ≥ 300/mm^3, viral load of ≥ 10,000 copies/ml, and absence of active infectious disease; AIDS-defining condition; febrile illness; liver or kidney disease; hypersensitivity to test material; and medication requirement. The protocol involved a screening visit; a pharmacokinetic and antiretroviral study requiring admission to a specialized Phase I research unit for a week of on-drug treatment, with multiple blood draws from a peripheral vein after oral intake of the first deferiprone dose, either 33 mg/kg or 50 mg/kg, and at least three repeat blood draws (first stage of protocol); an off-drug observation period of eight weeks, which comprised at least two repeat visits (second stage of protocol); and an exit visit. Enrollment complied with the applicable standard-of-care specified in the ‘Clinical Guidelines for the Management of HIV & AIDS in Adults and Adolescents’, National Department of Health, Republic of South Africa. Primary parameters included safety and tolerability (e.g. vital signs, laboratory variables, cardiac monitoring by ECG) and antiretroviral activity (e.g. RNA copies of HIV-1). Secondary parameters included pharmacokinetic variables (e.g. peak serum concentration) in serum, drawn from a peripheral vein at fixed times (0, 0.5, 1, 1.5, 2, 3, 4, 6, 9, 12) after the ingestion of the first dose on Day 1 of the study. The concentration of the nonconjugated, chelation-competent form of deferiprone in serum was determined by UV detection at 280 nm, after separation via reversed-phase HPLC under isocratic conditions. The lower limit of deferiprone quantitation was 1.466 μM, or 0.204 μg/ml. HIV-1 RNA was measured as described and used as log10-transformed parameter in all calculations.
26 consecutive subjects were randomly enrolled in the IRB-approved proof-of-concept trial and gave written informed consent to be studied (Supporting Information, S2 Text); recruitment of trial subjects commenced in November 2006 and follow-up terminated in April 2008.

[1] = after 8 weeks off-drug, P = 0.003

## Cc1c(O)c(=O)ccn1C [deferiprone, 3-hydroxy-1,2-dimethylpyridin-4-one]
99 mg group (33 mg/kg/dose orally three times per day)
  protocol-completing subjects with no viral load change: 66%
99 mg group, Subjects 1, 2, 5, achieved threshold and had a viral response
  ICR after the one-week treatment: -0.36 log10
99 mg group, Subjects 4, 6, 8, did not achieve the ≥150 μM threshold
  ICR after the one-week treatment: +0.23 log10
99 mg group, one-week treatment, P = 0.004
  ICD between threshold-achieving responders and non-achievers: 0.59 log10
99 mg/kg group
  within-subject variability of HIV-1 RNA reached after the one-week treatment: -0.45 log10
150 mg group
  within-subject variability of HIV-1 RNA reached after the one-week treatment: -0.53 log10
150 mg group (50 mg/kg/dose orally three times per day)
  protocol-completing subjects with no viral load change: 25%
150 mg group, Subjects 20, 22, 24, cmax ≥150 μM
  ICR after the one-week treatment: -0.39 log10
  period for which the decrease of HIV-1 RNA persists off-drug: 8 weeks
Listed as Deferiprone
  period for which the decrease of HIV-1 RNA persists off-drug: at least 8 weeks
8 weeks off-drug after 17 doses
  off-drug retention of the HIV-1 RNA reduction as multiple of the drug's half-life: over 670 times
'decrease' cohort, after 4 weeks off-drug
  average level of HIV-1 RNA: 4.44 log10
'decrease' cohort, after 8 weeks off-drug
  average level of HIV-1 RNA: 4.52 log10
'decrease' cohort, after 7 days (4.90 log10 initially)
  average level of HIV-1 RNA: 4.53 log10
'no-decrease' cohort, after 4 weeks off-drug
  average level of HIV-1 RNA: 4.83 log10
'no-decrease' cohort, after 8 weeks off-drug
  average level of HIV-1 RNA: 4.70 log10
'no-decrease' cohort, after 7 days (4.53 log10 initially)
  average level of HIV-1 RNA: 4.74 log10
DTD 'decrease' cohort
  ICR after 8 weeks off-drug: -0.31 log10
DTD 'decrease' cohort, N = 6
  ICR at the end of the first stage (S1, Day 7 vs Day 1): -0.37 log10
DTD 'no-decrease' cohort
  ICR after 8 weeks off-drug: +0.17 log10
DTD 'no-decrease' cohort, N = 5
  ICR at the end of the first stage (S1, Day 7 vs Day 1): +0.21 log10
Group A, cmax ≥150 μM
  ICR at the end of 8 weeks off-drug: -0.28 log10
Group A, cmax ≥150 μM on either dosage, N = 7, 7 days on-drug
  intra-cohort response (ICR), HIV-1 RNA Day 7 relative to Day 1: -0.27 log10
Group A, one-week treatment
  subjects who achieved the threshold (cmax ≥150 μM) and showed a decline in viral load: 6 of the 7
Group B, one-week treatment
  viral load in the 4 subjects who did not achieve the threshold: did not show a decline in viral load
Group B, threshold-failing
  ICR at the end of 8 weeks off-drug: +0.24 log10
Subject 19, 150 mg group, cmax 128 μM
  change in viral load during the one-week treatment: +0.02 log10
[1]
  ICD Group A vs Group B: 0.52 log10
  ICD regimen-compliant 'decrease' sub-group vs 'no-decrease' cohort: 0.61 log10
After 8 weeks off-drug, P = 0.008
  ICD 'decrease' vs 'no-decrease' cohort: 0.48 log10
After one week on-drug
  intercohort difference (ICD) Group A vs Group B: 0.44 log10
End of first stage S1, P = 0.0001
  ICD 'decrease' vs 'no-decrease' cohort: 0.58 log10
human, in vivo
  intra-cohort response (ICR), HIV-1 RNA Day 7 relative to Day 1: +0.17 log10
After 8 weeks off-drug
  ICR relative to pre-treatment level: -0.38 log10
After 7 days on-drug
  ICR relative to pre-treatment level: -0.40 log10
